In article PMC6691786, “In vitro anticancer potentiality and molecular modelling study of novel amino acid derivatives based on N^1,N^3-bis-(1-hydrazinyl-1-oxopropan-2-yl) isophthalamide” (Journal of Enzyme Inhibition and Medicinal Chemistry, 2019):
Entries after “also recorded” stand apart in the source; their conditions may differ.

How the values were obtained:
[1] = test system: HCT-116, A-549 and MCF-7 cell lines; experiment: Preliminary cytotoxicity screen on the three tumour cell lines (MTT); format: cell-based, human; settings: for cytotoxic activity (in words, SAR): HCT-116, A-549, MCF-7, compared with related derivatives; for inhibition at 100 µM: Homo sapiens, range over HCT-116, A-549, MCF-7, read-out: % of inhibition towards the three tested cancer cell lines
Experimental: (§1) Human colon carcinoma (HCT-116 cell line), human lung carcinoma (A-549), human breast carcinoma (MCF-7 cell line) and human skin normal cell line (BJ-1) were obtained from Karolinska Center, Department of Oncology and Pathology, Karolinska Institute and Hospital, Stockholm, Sweden. IC50 values were performed using SPSS computer program (SPSS for windows, statistical analysis software package/version 9/1989 SPSS Inc., Chicago, IL).
(§2) The procedure was done in laminar air flow cabinet bio safety class II level. Culturing and sub culturing were carried out according to Thabrew et al.[32]. Doxorubicin was used as a positive control. DMSO used as negative control. Cell Viability Assay was done according to Selim et al.[33] as described by Mosmann et al.[34]. The cells were seeded at concentration of 10 × 10^3 cells per well in case of MCF-7, 20 × 10^3 cells/well in case of HCT-116 cell lines using 96-well plates at 37 °C. After 48-h incubation, the medium was aspirated and 40 μl MTT salt (2.5 mg/ml) were added and further incubated for 4 h. About 200 μl 10% sodium dodecyl sulphate (SDS) was added. The absorbance was measured at 595 nm.

A-549 cell line = experiment: MTT cytotoxicity assay, lung carcinoma; format: cell-based; settings: Homo sapiens, A549; for inhibition at 100 µM: A-549, at 100 µM
Experimental: as §1, §2

HCT-116 cell line = experiment: MTT cytotoxicity assay, colon carcinoma; format: cell-based; settings: Homo sapiens; for inhibition at 100 µM: HCT-116, at 100 µM; for IC50: HCT-116, MTT, 48-h incubation, read-out: IC50 (mean ± SD)
Experimental: as §1, §2

MCF-7 cell line = experiment: MTT cytotoxicity assay, breast carcinoma; format: cell-based; settings: Homo sapiens, MCF7; for inhibition at 100 µM: MCF-7, at 100 µM
Experimental: as §1, §2

EGFR = EGFR (Homo sapiens, UniProt P00533); experiment: In vitro kinase inhibition ELISA assay; format: biochemical; settings: read-out: IC50 (mean ± SD)
EGFR, sequence (P00533 25-1210): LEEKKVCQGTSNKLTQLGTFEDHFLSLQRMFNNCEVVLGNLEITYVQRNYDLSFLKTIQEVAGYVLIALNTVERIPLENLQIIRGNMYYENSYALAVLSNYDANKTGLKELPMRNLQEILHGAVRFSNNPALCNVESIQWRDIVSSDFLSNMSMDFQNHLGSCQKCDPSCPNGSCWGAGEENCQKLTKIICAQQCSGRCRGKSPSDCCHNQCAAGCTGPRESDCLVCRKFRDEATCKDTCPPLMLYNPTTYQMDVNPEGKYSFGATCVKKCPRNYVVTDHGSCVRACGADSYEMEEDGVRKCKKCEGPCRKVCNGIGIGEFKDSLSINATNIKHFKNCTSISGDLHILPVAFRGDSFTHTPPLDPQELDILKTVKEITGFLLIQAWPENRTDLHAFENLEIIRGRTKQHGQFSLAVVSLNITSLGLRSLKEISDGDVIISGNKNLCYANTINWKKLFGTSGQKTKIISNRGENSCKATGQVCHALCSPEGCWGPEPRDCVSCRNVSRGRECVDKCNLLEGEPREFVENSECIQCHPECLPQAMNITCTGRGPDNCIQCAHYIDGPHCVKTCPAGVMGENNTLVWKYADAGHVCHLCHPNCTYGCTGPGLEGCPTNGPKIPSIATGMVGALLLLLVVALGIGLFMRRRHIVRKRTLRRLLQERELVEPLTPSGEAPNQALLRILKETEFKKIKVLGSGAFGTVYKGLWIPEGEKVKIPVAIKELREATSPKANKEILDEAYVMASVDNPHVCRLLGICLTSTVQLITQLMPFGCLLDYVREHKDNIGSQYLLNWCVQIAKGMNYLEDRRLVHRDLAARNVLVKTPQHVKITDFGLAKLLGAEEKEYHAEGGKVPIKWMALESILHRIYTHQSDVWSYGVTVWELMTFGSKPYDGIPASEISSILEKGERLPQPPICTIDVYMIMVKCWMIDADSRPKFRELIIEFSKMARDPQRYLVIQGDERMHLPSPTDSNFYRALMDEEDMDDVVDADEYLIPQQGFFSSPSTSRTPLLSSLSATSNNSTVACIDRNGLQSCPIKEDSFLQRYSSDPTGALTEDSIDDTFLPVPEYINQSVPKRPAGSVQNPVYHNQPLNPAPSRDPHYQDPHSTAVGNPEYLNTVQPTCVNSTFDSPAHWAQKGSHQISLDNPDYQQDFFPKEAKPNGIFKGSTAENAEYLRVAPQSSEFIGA
Experimental: The in vitro enzyme inhibition assessment for compound 5 was performed at confirmatory diagnostic unit, Vacsera, Egypt.

p53 = p53 level ELISA in MCF-7 cells; format: cell-based, human; settings: compound at IC50 for 24 h, compared to control
Experimental: Human p53 present in the sample or standard binds to antibodies adsorbed to the microwells. A biotin-conjugated is added. After incubation and dispense of unbound biotin-conjugated streptavidin HRP is added. The reaction is terminated by addition of acid and absorbance is measured at 450 nm[37].

Bax = Bax protein level ELISA in MCF-7 cells; format: cell-based, human; settings: compound at IC50 for 24 h
Experimental: Bax protein levels were evaluated according to Onur et al.. Monoclonal antibody specific to Bax captured on the plate is added. After incubation, Strep avid in conjugated to Horseradish peroxidase (HRP) is added. The reaction is terminated by the addition of acid and optical density of the colour produced measured at 450 nm.

MCF-7 cells = experiment: DNA fragmentation by DPA assay; format: cell-based, human
Experimental: DNA fragmentation of the cells was assayed, as previously described[40]^,[41]. Briefly, the cells were lysed with 20 mM EDTA, 0.5% (v/v) Triton X-100, and […] Tris (pH 8.0) for 15 min on ice. The cells were then centrifuged for 20 min, at 27,000×g, to separate intact chromatin from DNA fragments. The amount of DNA was measured by using a diphenylamine reagent. The optical density is measured at 600 nm.

CASP-7 = experiment: Human caspase-7 (CASP-7) estimation ELISA in MCF-7 cells; format: cell-based
Experimental: The micro ELISA plate provided in this kit pre-coated with CASP7-specific antibody. A biotinylated CASP7 antibody and Avidin–HRP conjugate was added. Aspire the excess components. The substrate solution was added wells that contain CASP7, biotinylated detection antibody and Avidin–HRP conjugate will appear blue in colour. The colour turns yellow followed the addition of sulphuric acid solution. The optical density (OD) was measured at a wavelength of 450 nm ± 2 nm[38].

[2] = test system: BJ-1 normal skin fibroblasts cell line; experiment: MTT cytotoxicity on normal skin cell line; format: cell-based, human; settings: BJ-1 normal skin cells, at 100 µM
Experimental: as §1, §2

BCL-2 = BCL-2 level ELISA in MCF-7 cells; format: cell-based, human; settings: compound at IC50 for 24 h, compared to control
Experimental: BCL-2 in the samples and standards were estimated according to Barbareschi et al.. A biotin-conjugated antibody was added followed by streptavidin-HRP. The reaction is then terminated by addition of acid and absorbance was measured at 450 nm.

c-kit = c-kit (Homo sapiens, UniProt P10721); experiment: In vitro kinase inhibition ELISA assay; format: biochemical; settings: read-out: IC50 (mean ± SD)
c-kit, sequence (P10721 26-976): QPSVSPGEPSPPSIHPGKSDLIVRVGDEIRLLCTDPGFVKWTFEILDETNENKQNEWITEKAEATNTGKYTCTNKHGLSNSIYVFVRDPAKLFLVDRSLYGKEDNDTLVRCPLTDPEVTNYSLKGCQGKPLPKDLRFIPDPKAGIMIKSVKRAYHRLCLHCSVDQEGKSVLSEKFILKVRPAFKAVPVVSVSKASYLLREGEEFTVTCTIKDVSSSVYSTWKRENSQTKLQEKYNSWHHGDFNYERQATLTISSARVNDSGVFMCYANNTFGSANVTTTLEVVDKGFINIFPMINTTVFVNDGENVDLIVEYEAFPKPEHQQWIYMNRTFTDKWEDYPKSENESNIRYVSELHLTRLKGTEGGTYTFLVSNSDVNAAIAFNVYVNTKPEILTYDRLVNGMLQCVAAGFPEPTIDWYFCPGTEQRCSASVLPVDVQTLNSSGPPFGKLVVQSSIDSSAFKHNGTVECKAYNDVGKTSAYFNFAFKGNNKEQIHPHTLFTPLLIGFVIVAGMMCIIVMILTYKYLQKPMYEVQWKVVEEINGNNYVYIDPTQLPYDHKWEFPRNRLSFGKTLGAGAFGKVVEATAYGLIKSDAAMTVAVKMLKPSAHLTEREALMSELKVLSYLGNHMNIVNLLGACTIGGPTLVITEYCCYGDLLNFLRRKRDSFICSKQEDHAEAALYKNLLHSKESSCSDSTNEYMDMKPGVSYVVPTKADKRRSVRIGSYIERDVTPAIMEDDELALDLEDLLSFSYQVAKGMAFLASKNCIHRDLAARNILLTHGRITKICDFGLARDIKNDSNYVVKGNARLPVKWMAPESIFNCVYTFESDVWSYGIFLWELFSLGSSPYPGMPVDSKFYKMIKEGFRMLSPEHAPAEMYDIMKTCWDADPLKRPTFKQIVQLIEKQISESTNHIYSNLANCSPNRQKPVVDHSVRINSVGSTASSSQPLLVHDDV

VEGFR-2 = VEGFR-2 (Homo sapiens, UniProt P35968); experiment: In vitro kinase inhibition ELISA assay; format: biochemical; settings: VEGFR-2 kinase, read-out: IC50 (mean ± SD)
VEGFR-2, sequence (P35968 20-1356): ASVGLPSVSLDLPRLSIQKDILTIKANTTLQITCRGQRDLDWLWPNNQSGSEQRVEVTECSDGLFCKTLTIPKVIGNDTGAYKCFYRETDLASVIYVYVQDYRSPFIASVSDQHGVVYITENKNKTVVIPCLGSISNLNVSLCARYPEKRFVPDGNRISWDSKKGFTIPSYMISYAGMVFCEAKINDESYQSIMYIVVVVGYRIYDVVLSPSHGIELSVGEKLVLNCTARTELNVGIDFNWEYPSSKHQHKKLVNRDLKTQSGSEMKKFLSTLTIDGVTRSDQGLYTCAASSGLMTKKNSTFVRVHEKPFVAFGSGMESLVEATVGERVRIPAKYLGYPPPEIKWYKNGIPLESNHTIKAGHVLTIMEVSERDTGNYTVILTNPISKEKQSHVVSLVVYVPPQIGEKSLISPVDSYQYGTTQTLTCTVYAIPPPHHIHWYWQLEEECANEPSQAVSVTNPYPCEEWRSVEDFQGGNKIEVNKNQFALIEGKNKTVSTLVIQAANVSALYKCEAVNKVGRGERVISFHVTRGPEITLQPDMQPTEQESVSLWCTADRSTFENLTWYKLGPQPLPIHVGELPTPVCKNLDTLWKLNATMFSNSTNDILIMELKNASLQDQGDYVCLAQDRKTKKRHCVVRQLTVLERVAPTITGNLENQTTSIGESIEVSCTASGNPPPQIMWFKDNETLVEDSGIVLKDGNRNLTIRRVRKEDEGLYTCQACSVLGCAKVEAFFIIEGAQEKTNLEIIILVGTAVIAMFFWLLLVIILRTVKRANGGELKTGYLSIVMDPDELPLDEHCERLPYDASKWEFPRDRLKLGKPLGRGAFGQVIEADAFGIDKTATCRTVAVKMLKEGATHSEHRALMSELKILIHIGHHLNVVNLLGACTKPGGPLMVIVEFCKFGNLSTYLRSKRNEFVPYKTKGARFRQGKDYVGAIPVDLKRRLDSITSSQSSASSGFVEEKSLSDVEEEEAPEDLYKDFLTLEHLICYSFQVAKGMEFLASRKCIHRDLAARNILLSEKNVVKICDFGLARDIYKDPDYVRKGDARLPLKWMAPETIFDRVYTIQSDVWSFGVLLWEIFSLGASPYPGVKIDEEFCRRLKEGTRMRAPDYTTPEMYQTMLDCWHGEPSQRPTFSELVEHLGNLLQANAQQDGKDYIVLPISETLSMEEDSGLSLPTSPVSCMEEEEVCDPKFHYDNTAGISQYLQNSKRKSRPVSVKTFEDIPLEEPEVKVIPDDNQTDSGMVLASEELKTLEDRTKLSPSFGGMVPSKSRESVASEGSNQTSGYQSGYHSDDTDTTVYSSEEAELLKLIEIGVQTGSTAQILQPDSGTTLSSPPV

tubulin beta (TUBb) = experiment: ELISA kit for tubulin beta (TUBb) in MCF-7 cells; format: cell-based, human; settings: in comparison with colchicine
Experimental: MCF-7 cells were inoculated at concentration 1.2–1.8 × 10,000 cells/well using DMEM (supplemented with 10% FBS and 1% penicillin–streptomycin). Tested compound added for 18–24 h before the enzyme assay for Tubulin. Avidin conjugated to HRP is added to each microplate well and incubated. […] Sulphuric acid solution added to terminate enzymatic reaction. Colour change is measured spectrophotometrically at a wavelength of 450 nm ± 10 nm[39].

CDK-2 = CDK-2 (Homo sapiens, UniProt P24941); experiment: In vitro kinase inhibition ELISA assay; format: biochemical; settings: CDK-2 kinase, read-out: IC50 (mean ± SD)

Which “cytotoxic activity (in words, SAR)” value [1] does the source give for `CC(NC(=O)c1cccc(C(=O)NC(C)C(=O)NN=Cc2ccc(Cl)cc2)c1)C(=O)NN=Cc1ccc(Cl)cc1` (centres unmarked) [Compound 10, N^1,N^3-bis-(1-(-2-(4-chlorobenzylidene) hydrazinyl)-1-oxopropan-2-yl) isophthalamide] here?
Its value is “variable and noticeable increase in the cytotoxic activity”.

What about the melting point of the same molecule?
Its melting point is 296 to 298 °C.

For `CC(NC(=O)c1cccc(C(=O)NC(C)C(=O)NN=C2C(=O)Nc3ccc(Cl)cc32)c1)C(=O)NN=C1C(=O)Nc2ccc(Cl)cc21` (centres unmarked) [Compound 6, N^1-(1-(-2-(5-chloro-2-oxoindolin-3-ylidene)hydrazinyl)-1-oxopropan-2-yl)-N^3-(1-(-2-(5-chloro-2-oxoindolin-3-ylidene) hydrazinyl)-1-oxopropan-2-yl)isophthalamide], which melting point is on record?
The melting point was 271 to 273 °C.

And the inhibition at 100 µM (A-549 cell line)?
Its inhibition at 100 µM is 48.4%.

And the inhibition at 100 µM (HCT-116 cell line)?
The inhibition at 100 µM was 33.1%.

And the inhibition at 100 µM (MCF-7 cell line)?
Its inhibition at 100 µM is 19.6%.

What does the source list for `CC(NC(=O)c1cccc(C(=O)NC(C)C(=O)NN2C(=O)CSC2c2ccc(Cl)cc2)c1)C(=O)NN1C(=O)CSC1c1ccc(Cl)cc1` (centres unmarked) [Compound 14, N^1,N^3-bis-(1-(2-(4-chlorophenyl)-4-oxothiazolidin-3-ylamino)-1-oxopropan-2-yl) isophthalamide]?
inhibition at 100 µM [1]: 72.5 to 98.3%; melting point: 218 to 220 °C; IC50 (A-549 cell line; A-549, MTT, read-out: IC50 (mean ± SD)): 41 nM

With `CC(NC(=O)c1cccc(C(=O)NC(C)C(=O)NN=Cc2ccc(F)cc2)c1)C(=O)NN=Cc1ccc(F)cc1` (centres unmarked) [Compound 11, N^1,N^3-bis-(1-(-2-(4-fluorobenzylidene) hydrazinyl)-1-oxopropan-2-yl) isophthalamide] as the molecule, how does the “cytotoxic activity (in words, SAR)” value [1] read?
Its value is “variable and noticeable increase in the cytotoxic activity”.

And the melting point?
Its melting point is 285 to 287 °C.

With `CC(NC(=O)c1cccc(C(=O)NC(C)C(=O)NN=C[C@@H](O)[C@H](O)[C@H](O)CO)c1)C(=O)NN=C[C@@H](O)[C@H](O)[C@H](O)CO` (stereo partly drawn) [Compound 9, N^1,N^3-bis (1-oxo-1-(-2-((2R, 3S, 4R)-2,3,4,5-tetrahydroxypentylidene) hydrazinyl)propan-2-yl) isophthalamide] as the molecule, how does the “cytotoxic activity (in words, SAR)” value [1] read?
Its value is “dramatic drop in the anticancer effect”.

For `COc1cccc2c1C(=O)c1c(O)c3c(c(O)c1C2=O)C[C@@](O)(C(=O)CO)C[C@@H]3O[C@H]1C[C@H](N)[C@H](O)[C@H](C)O1` [Doxorubicin, reference compound], which IC50 (HCT-116 cell line) is on record?
Its IC50 is 65 nM.

With `CC(NC(=O)c1cccc(C(=O)NC(C)C(=O)N/N=C2/C(=O)Nc3ccccc32)c1)C(=O)N/N=C1\C(=O)Nc2ccccc21` (centres unmarked) [Compound 5, N^1-(1-oxo-1-(-2-(2-oxoindolin-3-ylidene) hydrazinyl)propan-2-yl)-N^3-(1-oxo-1-(-2-(2-oxoindolin-3-ylidene) hydrazinyl)propan-2-yl) isophthalamide] as the molecule, how does the IC50 (EGFR) read?
Its IC50 is 780 ± 1250 nM.

What about the inhibition at 100 µM [1] of the same molecule?
Its inhibition at 100 µM is 72.5 to 98.3%.

And the p53 expression level (p53)?
Its p53 expression level is “significant up-expression”.

What about the Bax/BCL-2 ratio (Bax) of the same molecule?
The Bax/BCL-2 ratio was “significant elevation; also recorded: significantly elevated”.

And the Bax expression level (Bax; compared to control)?
The Bax expression level was “significant up-expression”.

What about the “% of DNA fragmentation” value (MCF-7 cells) of the same molecule?
The value was “remarkable % of DNA fragmentation”.

What about the melting point of the same molecule?
Its melting point is 271 to 273 °C.

And the “level of active CASP-7” value (CASP-7)?
Its value is “significant increase”.

And the “% inhibition (cytotoxicity on normal cells)” value [2]?
Its value is 32.6%.

And the BCL-2 expression level (BCL-2)?
The BCL-2 expression level was “down-expression”.

What about the IC50 (c-kit) of the same molecule?
Its IC50 is 2850 ± 40 nM.

What about the IC50 (VEGFR-2) of the same molecule?
The IC50 was 3170 ± 1000 nM.

And the “effect on microtubule-polymer mass (tubulin polymerization, TubB)” value (tubulin beta (TUBb))?
Its value is “moderate effect”.

And the IC50 (CDK-2)?
Its IC50 is 6240 ± 1210 nM.

And the IC50 (HCT-116 cell line)?
The IC50 was 14 nM.

Which “cytotoxic activity (in words, SAR)” value [1] does the source give for `COc1ccc(C=NNC(=O)C(C)NC(=O)c2cccc(C(=O)NC(C)C(=O)NN=Cc3ccc(OC)c(OC)c3)c2)cc1OC` (centres unmarked) [Compound 13, N^1,N^3-bis-(1-(-2-(3,4-dimethoxybenzylidene) hydrazinyl)-1-oxopropan-2-yl) isophthalamide] here?
Its value is “reduction in the activity”.

What about the melting point of the same molecule?
The melting point was 277 to 279 °C.

Which inhibition at 100 µM [1] does the source give for `CC(NC(=O)c1cccc(C(=O)NC(C)c2n[nH]c(=S)o2)c1)c1n[nH]c(=S)o1` (centres unmarked) [Compound 7, N^1,N^3-bis (1-(5-thioxo-4,5-dihydro-1,3,4-oxadiazol-2-yl)ethyl) isophthalamide] here?
Its inhibition at 100 µM is 72.5 to 98.3%.

And the melting point?
The melting point was 132 to 134 °C.

And the inhibition at 100 µM (MCF-7 cell line)?
The inhibition at 100 µM was 77.5%.

For `CC(NC(=O)c1cccc(C(=O)NC(C)C(=O)NN=C[C@H](O)[C@@H](O)[C@H](O)CO)c1)C(=O)NN=C[C@H](O)[C@@H](O)[C@H](O)CO` (stereo partly drawn) [Compound 8, N^1,N^3-bis (1-oxo-1-(-2-((2S, 3 R, 4 R)-2,3,4,5-tetrahydroxypentylidene) hydrazinyl)propan-2-yl) isophthalamide], which “cytotoxic activity (in words, SAR)” value [1] is on record?
The value was “dramatic drop in the anticancer effect”.

Which melting point does the source give for `CC(NC(=O)c1cccc(C(=O)NC(C)C(=O)NN2C(=O)CSC2c2ccc(F)cc2)c1)C(=O)NN1C(=O)CSC1c1ccc(F)cc1` (centres unmarked) [Compound 15, N^1,N^3-bis-(1-(2-(4-fluorophenyl)-4-oxothiazolidin-3-ylamino)-1-oxopropan-2-yl) isophthalamide] here?
Its melting point is 168 to 170 °C.

For `COc1ccc(C2SCC(=O)N2NC(=O)C(C)NC(=O)c2cccc(C(=O)NC(C)C(=O)NN3C(=O)CSC3c3ccc(OC)cc3)c2)cc1` (centres unmarked), which melting point is on record?
The melting point was 242 to 244 °C.

Which results are given for `CC(NC(=O)c1cccc(C(=O)NC(C)C(=O)NN)c1)C(=O)NN` (centres unmarked) [Compound 4, N^1,N^3-bis-(1-hydrazinyl-1-oxopropan-2-yl) isophthalamide]?
melting point: 232 to 234 °C; inhibition at 100 µM (A-549 cell line): 0.9%; inhibition at 100 µM (HCT-116 cell line): 2.3%; inhibition at 100 µM (MCF-7 cell line): 1.8%

What does the source list for `COc1ccc(C=NNC(=O)C(C)NC(=O)c2cccc(C(=O)NC(C)C(=O)NN=Cc3ccc(OC)cc3)c2)cc1` (centres unmarked) [Compound 12, N^1,N^3-bis-(1-(-2-(4-methoxybenzylidene) hydrazinyl)-1-oxopropan-2-yl) isophthalamide]?
cytotoxic activity (in words, SAR) [1]: variable and noticeable increase in the cytotoxic activity; inhibition at 100 µM [1]: 72.5 to 98.3%; melting point: 273 to 275 °C; IC50 (MCF-7 cell line; MCF-7, MTT, 48-h incubation, read-out: IC50 (mean ± SD)): 51 nM
